System: obstruction-induced persistent progression of renal fibrosis
Assay: Reversible unilateral ureteral obstruction (RUUO) model
Assay type: in vivo, mouse
Text: FIG. 6A illustrates a diagram depicting the timeline of operations and drug delivery. The left ureter was surgically ligated (UUO-L) for 7 days, after which it was re-connected to the bladder (RUUO-L). Various compounds, including DMSO (control), WRG-28, and Av, were intraperitoneally injected daily during ureter ligation (UUO-L) period. After following RUUO-L for an additional 13 days, the right ureter was ligated (UUO-R). Subsequently, mice were housed in metabolic cages on the day after surgery (day 21). On day 22, the left kidneys were removed for further analysis to evaluate kidney function. […] FIG. 6C illustrates the measurement of the Sirius red-positive area in each group, conducted by using Image J from 5-10 images. The protein levels of integrin β1, collagen 1a1, DDR2, α-SMA, E-cadherin, SGLT2, NHE1, and β-actin were assessed in mice treated with WRG-28 (FIG. 6D) and Av (FIG. 6F) using Western blot analysis. Relative protein levels were quantified using Image J (FIG. 6E and FIG. 6G). Each bar represents mean±SEM. In all the graphs, *, **, and *** denote p-values of <0.05, 0.01, and 0.001, respectively.
The left ureter was surgically ligated (UUO-L) for 7 days, after which it was re-connected to the bladder (RUUO-L). Various compounds, including DMSO (control), WRG-28, and Av were intraperitoneally injected for 13 days after the release of left ureter ligation (during RUUO-L period). After 13 days of RUUO-L, the right ureter was ligated (UUO-R). Subsequently, the mice were housed in metabolic cages on the following day of surgery (day 21). On day 22, the left kidneys were removed for further analysis. […] FIG. 7C illustrates the measurement of the Sirius red-positive area in each group using Image J from 5-10 images. The protein levels of integrin β1, collagen 1a1, DDR2, […] were assessed in mice treated with WRG-28 (FIG. 7D) and Av (FIG. 7F) using Western blot analysis. The relative protein levels were measured and quantified using Image J (FIG. 7E and FIG. 7G). Each bar represents the mean±SEM. In all the graphs, *, **, and *** denote p-values of <0.05, 0.01, and 0.001, respectively. NS denotes a p-value >0.05, indicating no significant difference between the two groups.
FIG. 8A, FIG. 8B, FIG. 8C, FIG. 8D, FIG. 8E, FIG. 8F, FIG. 8G, and FIG. 8H illustrate how WRG-28 and Av restore epithelial differentiation and reduce collagen deposition and myofibroblast expansion in RUUO-induced persistent progression of renal fibrosis. The frozen tissue blocks were utilized for immunofluorescence staining. […] Laminin alpha 1 and collagen 1a1 were detected using primary antibodies, followed by secondary antibodies conjugated with Alexa-488 (green) and Alexa-594 (red), respectively. Hoechst 33258 (blue) was used for labeling nuclei. FIG. 8A-(ii) illustrates the fluorescent intensity of collagen 1a1 measured using Image J. Analysis was conducted on 5-10 areas from each of the 5 pictures, with each bar representing the mean±SEM. In FIG. 8A-(i), the thickness of laminin alpha 1 was measured using Image J by analyzing 5-10 areas from each of the 5-10 pictures. The median is marked by a solid line, while the quartiles are indicated by dotted lines. […] FIG. 8B-(iii) illustrates the fluorescent intensity of α-SMA, measured using Image J. Quantification was conducted on at least 5 areas from each of the 5 pictures, with each bar representing the mean±SEM. […] Additionally, Hoechst 33258 (blue) was used for labeling nuclei. FIG. 8C-(iv) illustrates the quantification of apical membrane expression of SGLT2 in SGLT2 positive cells for each condition. Analysis was conducted on at least 5 pictures from each condition, with each bar representing the mean±SEM. […] Hoechst 33258 (blue) was used to label nuclei. The expressions of DDR2 (FIG. 8D-(v)) and AQP1 (FIG. 8D-(vi)) were analyzed and quantified based on 5-8 pictures from each condition. Each bar in the figures represents the mean±SEM. […]

[1] = serum, compared to DMSO-treated mice, 7*/15d or 7/15*d
[2] = treated after release of obstruction (7/15*d), Western blot
[3] = treated after the obstruction was released (7/15*d)
[4] = treated during obstruction (7*/15d)
[5] = treated during obstruction (7*/15d), Western blot

For `CCNS(=O)(=O)c1ccc(COc2ccc3nc4ccc(=O)cc-4oc3c2)cc1` [WRG-28], the “expression of DDR2 (immunofluorescence)” value (RUUO, compared to the DMSO-treated group) was “reduced”, the “apical membrane expression of SGLT-2” value (RUUO, immunofluorescence) was “reversed” and the atrophic tubules (RUUO, immunofluorescence) was “fewer”. For the same compound, the “accumulation of collagen 1a1 (immunofluorescence)” value (RUUO, vs DMSO treated group) was “mitigated”, the “expression of α-SMA (immunofluorescence)” value (RUUO, vs DMSO treated group) was “markedly reduced” and the “level of BUN” value [1] was “significantly reduced”. The “level of CRE” value [1] was “significantly reduced”, the “kidney histology (H&E)” value (treated 7 days during ureter obstruction (7*/15d)) was “preserved the intact tubular structure” and the “kidney histology (H&E) compared to DMSO-treated mice” value (treated 13 days after release of obstruction (7/15*d)) was “numerous intact tubular structures, less inflammation and scar tissue”. For the same compound, the “collagen-positive area (Sirius red)” value (treated after release of obstruction (7/15*d)) was “reduced”, the “downregulation of epithelial marker proteins, E-cadherin, SGLT2 and NHE1” value [2] was “only partially reversed” and the “obstruction-induced upregulation of integrin β1, DDR2, collagen 1a1, and α-SMA” value [2] was “alleviated”. For the same compound, the “number of apoptotic cells (TUNEL-positive cells)” value [3] was “significantly reduced”, the “numbers of proliferating tubular cells (Ki67-positive cells)” value [3] was “increased” and the “expansion of the fibrotic area (collagen-positive area, Sirius red)” value [4] was “significantly reduced”. For the same compound, the “numbers of proliferating tubular cells (Ki67-positive)” value [4] was “did not significantly differ”, the “proliferating interstitial cells (Ki67)” value [4] was “more proliferating interstitial cells in DMSO treated mice” and the “expression of epithelial markers (E-cadherin, SGLT2, NHE1)” value [5] was “significant increase”. For the same compound, the “expression of mesenchymal marker proteins (integrin β1, DDR2, collagen 1a1, α-SMA)” value [5] was “significantly reduced”, the “apoptotic (TUNEL-positive) tubular cells” value (treated during obstruction, obstruction released for 15 days (7*/15d)) was “only a few” and the “width of the basement membrane (laminin alpha 1 thickness)” value (treated during the obstruction (7*/15d) or after its release (7/15*d), immunofluorescence) was “uniform and unchanging width”.

Source: patent US20250339443A1, “METHOD FOR TREATING OR PREVENTING CALCIUM RELEASE-ACTIVATED CALCIUM CHANNEL OR DISCOIDIN DOMAIN RECEPTOR 2 RELATED DISORDERS OR CONDITIONS” (LumiSTAR Biotechnology, Inc., priority 2023, published 2025)
